From patent US20230390276A1, “TREATMENT OF AUTOIMMUNE DISEASES WITH A DIHYDROOROTATE HEHYDROGENASE (DHODH) INHIBITOR” (Aslan Pharmaceuticals Pte. Ltd., priority 2020, published 2023)

Tests used:
[1] = tested on: multiple sclerosis experimental autoimmune encephalomyelitis (EAE) model; assay: EAE model of multiple sclerosis, clinical score (Example 1); type: in vivo; conditions: oral 1, 3, 10 or 15 mg/kg per day from Day 8 after disease induction
From the text: Experimental autoimmune encephalomyelitis (EAE) is a well-studied animal model of demyelinating diseases, such as human multiple sclerosis (MS). EAE is induced by injecting susceptible animals with purified myelin components, central nervous system (CNS) extract, or synthesized specific peptides emulsified in an adjuvant. The peptides are for example derived from myelin basic protein (MBP), myelin oligodendrocyte glycoprotein (MOG) or proteolipid protein (PLP). To investigate the effect of ASLAN003 on multiple sclerosis, ASLAN003 was administered orally to the EAE model at doses of 1 mg/kg, 3 mg/kg, 10 mg/kg or 15 mg/kg per day, starting from Day 8 after disease induction. A vehicle control was included.

EAE Lewis rat model [2] = assay: EAE Lewis rat model, clinical score AUC (Example 2); type: in vivo, Male Lewis rats
Procedure: For the induction of EAE, guinea pig myelin basic protein (MBP) (Sigma, M2295) suspended in 0.9% saline solution at a concentration of 2 mg/ml was used. The solution was emulsified with an equal volume of Freund's complete adjuvant (Sigma, F5881) containing 4 mg/ml of heat-inactivated Mycobacterium tuberculosis H37Ra (Difeo Laboratories, Ref. 231141). Male Lewis rats were immunized with 0.1 ml of emulsion by subcutaneous injection into the right and left hind footpads with the emulsion containing MBP at 100 μg/rat.
Individual animals were examined daily for clinical signs of neurological deficits scored on a 0 to 5 scale, as follows:
Clinical signs of the disease were observed on day 8-9 after induction.
As disease progressed, animals with a score of 4 were sacrificed if disability indicated little chance of recovery, in accordance with animal welfare standards. Mortality due to sacrifice or spontaneous EAE-related death was recorded as a 5 on the given day. This death score continued to be included in the clinical assessment, but no body weight measurements could be carried forward.
LAS 186323 (ASLAN003), positive control T and positive control F were freshly prepared every day and suspended in 0.5% Methylcellulose and 0.1% Tween 80 in water, at the specified doses and administered by oral gavage in a volume of 10 ml/kg.
Evaluation of disability was performed on a daily basis and a clinical score given to each animal, as described. The area under the curve (AUC) of the clinical score was generated for each animal from the data recorded along the experiment. The percentage of inhibition of the AUC was calculated for every animal versus the mean of the AUC of the vehicle group. The mean percentage of inhibition per treatment and dose was calculated.

EAE Lewis rat model [3] = assay: Histology of the CNS in EAE rats; type: in vivo, Male Lewis rats; conditions: highest doses tested; compared to vehicle-treated animals
Procedure: At the end of the experiment, animals were killed by exsanguination and necropsies were performed in a blind manner. The spinal cords (CNS; spinal cord, medulla oblonga, cerebellum) of EAE animals were obtained, fixed in 4% formalin in PBS, and embedded in paraffin. Six μm-thickness sections were prepared and then stained with hematoxylin and eosin. The histological score was evaluated as follows: • 0: no lesions; • 1: solitary lesions with cell infiltrates of low cellular density in the entire section; • 2: a few lesions with moderate cell infiltration in each of a few fields; • 3: many lesions in almost all fields with massive cell infiltration and accompanying edema (Kataoka, 2005).

[4] = Haematological cell count in EAE rats; type: in vivo, Male Lewis rats; conditions: for number of neutrophils: 24 hours after last administration, no statistically significant difference versus vehicle
Procedure: At the end of the assay, 24 h after last administration, blood samples from the retro-orbital plexus were obtained from all animals under light anaesthesia. Samples were used to determine complete blood cell count (XT-2000i/XT-1800i, Sysmex Corporation). Absolute values were reported for all cell types.

[5] = tested on: rheumatoid arthritis (RA) Adjuvant-Induced Arthritis (AIA) model; assay: Adjuvant-induced arthritis (AIA) model, paw inflammation AUC; type: in vivo, Male Wistar rats; conditions: for % Inhibition of the AUC (mean ± SEM): vs mean of vehicle
[6] = WBC and platelet counts in AIA model; type: in vivo, Male Wistar rats; conditions: arthritic rats, 24 hrs after last administration
Procedure: Rats were administered the CFA suspension every day in the morning for 10 consecutive days. Body weight was measured every day and paw volumes every other day. On day 11 post-treatment (24 hrs after last administration), the rats were anesthetised, blood samples were collected from their retroorbital plexus to determine cell counts, and then sacrificed. Hind paws were excised to perform X-ray analysis and a score of radiological damage was performed by a scientist unaware in a blind manner.

[7] = tested on: rheumatoid arthritis (RA) Adjuvant-Induced Arthritis (AIA) model; assay: X-ray (radiological) score of paws in AIA model; type: in vivo, Male Wistar rats; conditions: 3 mg/kg; 2 to 3 independent experiments
Procedure: Rats were administered the CFA suspension every day in the morning for 10 consecutive days. Body weight was measured every day and paw volumes every other day. On day 11 post-treatment (24 hrs after last administration), the rats were anesthetised, blood samples were collected from their retroorbital plexus to determine cell counts, and then sacrificed. Hind paws were excised to perform X-ray analysis and a score of radiological damage was performed by a scientist unaware in a blind manner. The radiological score is a composite of 5 different parameters evaluated from the X-ray images of every individual paw. The 5 parameters are: bone demineralisation, periostitis, narrowing of the joint space, cystic degeneration, and inflammation of the soft tissues. For each parameter, a value of 0-4 was assigned, which is proportional to the severity observed. The sum of the scores of the 5 parameters provides the radiological score for each animal. The effect of a treatment on the inhibition of the radiological score was measured by calculating the % inhibition of the radiological score of every animal belonging to a treatment group vs the mean of the vehicle treated group. In the case where several experiments were conducted, the values provided are the mean of the individual experiments and the SEM.

DSS induced IBD model = assay: Dextran sulfate sodium (DSS) induced inflammatory bowel disease (IBD) mouse model; type: in vivo, Male C57BL/6 mice
Procedure: Male C57BL/6 mice aged 6-7 weeks were procured from Shanghai Lingchang Bio Tech Co. Ltd, China. Animals were randomized into groups based on the body weight: • Group 01: Purified water, ad libitum, Day 1-8; Vehicle, 5 mL/kg, P0, QD, Day 0-9, n=6 • Group 02: 3% DSS in water, ad libitum, Day 1-8; Vehicle, 5 mL/kg, P0, QD, Day 0-9, n=8 • Group 03: 3% DSS in water, ad libitum, Day 1-8; positive control V, 20 mg/kg, P0, QD, Day 0-9, n=8 • Group 04: 3% DSS in water, ad libitum, Day 1-8; ASLAN003, low dose, P0, QD, Day 0-9, n=8a • Group 05: 3% DSS in water, ad libitum, Day 1-8; ASLAN003, high dose, P0, QD, Day 0-9, n=8 • Abbreviations: QD=Once daily; PO=Oral gavage. • Study duration: 3 weeks of acclimation phase, and 10 days of treatment phase starting from Day 0 (Day 0-10). • Colitis model induction: To induce acute experimental colitis, mice in Groups 02-05 were provided ad libitum access to 3% DSS in purified water for 7 days (Day 1-7), followed by purified water for 2 days (Day 9-10). The drinking water containing DSS was changed once in two days. Mice in Group 01 was kept on purified water as a control, during Day 1-7. • In-life parameters measured: • Water and food consumption was monitored once daily during Day 0-10. • Body weight was measured once daily during Day 0-10, with twice daily clinical monitoring. • Stool observation as conducted once daily during Day 0-10. A disease activity index (DAI) was determined to quantify induction of colitis. • Intestinal permeability was assessed on Days 0 and 9. • Faeces was collected for lipocalin-2 detection on Days 0, 4, 8 and 10. • Study Termination: The mice were sacrificed on Day 10, and the following was performed on the sacrificed animals: • The entire colon (from caecum to anus) was collected and its length from ileocecal valve to anus was measured. • One photo of the entire colon for each mouse was taken. • The colon was opened along the mesenteric border, rinsed with saline, blotted dry and its weight was measured. • The colon was processed as ‘spiral Swiss Rolls’, fixed in 10% neutral-buffered formalin for 24-48 hours, and embedded in paraffin (one block per mouse) for hematoxylin-eosin (H&E) staining and histopathological evaluation. • The spleen was dissected, its tissue weight measured and recorded, and then discarded.

COc1cccc(-c2cc(F)c(Nc3ncccc3C(=O)O)c(F)c2)c1 [ASLAN003, 2-(3,5-difluoro-3′-methoxybiphenyl-4-ylamino) nicotinic acid]
clinical score compared to the vehicle control [1]: significantly reduced clinical score | % AUC inhibition Mean (SEM) of clinical score (EAE Lewis rat model [2]; 1 mg/kg oral daily): 41.1 (13.34) % | % AUC inhibition Mean (SEM) of clinical score (EAE Lewis rat model [2]; 3 mg/kg oral daily): 44.4 (10.79) % | % AUC inhibition Mean (SEM) of clinical score (EAE Lewis rat model [2]; 10 mg/kg oral daily): 65.1 (9.02) % | % AUC inhibition Mean (SEM) of clinical score (EAE Lewis rat model [2]; 15 mg/kg oral daily): 84.4 (4.94) % | ED50 (clinical score AUC inhibition) (EAE Lewis rat model [2]; calculated by linear regression): 2.7 mg/kg/day | CNS histological score (microscopic CNS lesions) (EAE Lewis rat model [3]): profound improvement in the microscopic CNS lesions | number of neutrophils ([4]; 10 mg/kg): not at 10 mg/kg | number of neutrophils ([4]; 3 and 15 mg/kg): reduction in the number of neutrophils | blood cell count ([4]; once a day oral, 1-15 mg/kg): did not have a significant effect | AUC of right paw inflammation (mean ± SEM) ([5]; 1 mg/kg oral daily, 2 to 5 independent experiments): 9.11 ± 3.14 | % Inhibition of the AUC (mean ± SEM) ([5]; 1 mg/kg oral daily): 32.76 ± 22.8% | % Inhibition of the AUC (mean ± SEM) ([5]; 3 mg/kg oral daily): 53.09 ± 2.4% | % Inhibition of the AUC (mean ± SEM) ([5]; 10 mg/kg oral daily): 64.49 ± 4.6% | ED50 ([5]; Rattus norvegicus, from 2 to 5 independent experiments, read-out: ED50 (mean % reduction in paw volume)): 4.6 mg/kg | Platelets ([6]; 1 mg/kg): 1418 ± 180 ×10^3/μl | White blood cells ([6]; 1 mg/kg): 20.6 ± 0 ×10^3/μl | Platelets ([6]; 3 mg/kg): 1180 ± 45.9 ×10^3/μl | White blood cells ([6]; 3 mg/kg): 16.2 ± 0.86 ×10^3/μl | X-ray score (mean ± SEM) [7]: 2.16 ± 0.25 | stool consistency (DSS induced IBD model; 75 mg/kg PO QD (group 5), Days 2 to 9): best overall stool consistency | spleen weight (DSS induced IBD model; 75 mg/kg PO QD (group 5), end of study): most similar to the control group 1 | Disease Activity Index (DAI) (DSS induced IBD model; 75 mg/kg PO QD (group 5), over the 10 days): lower overall increase in DAI | bloody stools (DSS induced IBD model; 75 mg/kg PO QD (group 5), over the course of the study): lowest incidence of bloody stools | colon weight/length (DSS induced IBD model; 25 and 75 mg/kg PO QD (groups 4 and 5), end of study, vs Vehicle group 2): fairly similar | lipocalin in faeces (intestinal inflammation) (DSS induced IBD model; 25 and 75 mg/kg PO QD (groups 4 and 5), vs vehicle treated group 2): less intestinal inflammation | loss in body weight (DSS induced IBD model; 25 and 75 mg/kg PO QD Day 0-9 (groups 4 and 5), vs DSS induced vehicle group 2): similar
